From patent CN102911068A, “左旋肉碱l-苹果酸盐及其制备方法与用途” (GUANGZHOU AOHAI BIO-TECHNOLOGY CO LTD, priority 2011, dated 2013)

Key:
[1] = test system: obese model rats [肥胖模型大鼠]; test: Weight-loss efficacy test in obese model SD rats (diet-induced obesity, with swimming exercise); assay type: in vivo, rat; details: 30 days; for body fat (testicular and perirenal fat pads) / body weight increase / fat/body ratio: gavage
[2] = background art, cited from earlier work
[3] = Critical relative humidity (CRH) from moisture absorption equilibrium curve; assay type: physicochemical
[4] = Angle of repose (powder poured through a funnel) / flowability; assay type: physicochemical
[5] = background art; cited from earlier work
[6] = L-carnitine tartrate control + exercise, 0.13 g in 2 ml water, swimming 30 min, 5 times/week, * (P<0.05 vs model control) printed
[7] = high dose + exercise (30x recommended human dose; Ex. 2 at maximum dissolved concentration; Ex. 1/2/3/4: 0.96/0.36/1.02/1.08 g in 2 ml water), * (P<0.05 vs model control): all

C[N+](C)(C)CC(O)CC(=O)O (centres unmarked) [左旋肉碱酒石酸盐, reference compound]
body fat (testicular and perirenal fat pads) ([1]; L-carnitine tartrate control + exercise, 0.13 g in 2 ml water, swimming 30 min, 5 times/week): 8.2 ± 4.3 g
body weight increase [1, 6]: 21.3 ± 14.2 g
fat/body ratio [1, 6]: 0.03±0.01
hygroscopicity ([2]; words): 仍有较大的吸湿性
relative humidity at which deliquescence occurs [2]: > 60%

C[N+](C)(C)CC(O)CC(=O)O (centres unmarked) [实施例1药, 左旋肉碱L-苹果酸盐]
body fat (testicular and perirenal fat pads) [1, 7]: 5.9 ± 4.5 g
body weight increase [1, 7]: 15.2 ± 7.9 g
fat/body ratio [1, 7]: 0.02±0.02
body weight increase ([1]; low dose + exercise (5x recommended human dose; Ex. 1/2/3/4: 0.16/0.18/0.17/0.18 g in 2 ml water), * (P<0.05 vs model control): Ex. 1, 3, 4): 19.3 ± 10.2 g
body fat (testicular and perirenal fat pads) ([1]; low dose + exercise (5x recommended human dose; Ex. 1/2/3/4: 0.16/0.18/0.17/0.18 g in 2 ml water), * (P<0.05 vs model control): Ex. 2, 3, 4): 7.3 ± 4.1 g
fat/body ratio ([1]; low dose + exercise (5x recommended human dose; Ex. 1/2/3/4: 0.16/0.18/0.17/0.18 g in 2 ml water), no * printed): 0.03±0.01
difference between results of Example 1, 2, 3 and 4 drugs ([1]; words, obese rats): 无明显差异
critical relative humidity CRH ([3]; 25 °C, saturated salt solutions in desiccator): 87%
moisture absorption (hygroscopicity) ([3]; words, judged from CRH at 25 °C): 不易吸潮
angle of repose ([4]; solid powder flowing from funnel): 30 °
flowability ([4]; words, judged from angle of repose): 流动性较好

CC(=O)[O-].CC(=O)[O-].[Ca+2] [醋酸钙]
LD50 [5]: < 5000 mg/kg
